Data: patent US20160108098A1, “THERAPEUTIC PEPTIDES” (GLAXOSMITHKLINE INTELLECTUAL PROPERTY DEVELOPMENT LIMITED, priority 2013, published 2016)
Where no end group is shown, it is not given here.

Columns and labels:
[1] = molecular target: T1, human Neuropeptide Y receptor type 2 (Homo sapiens, UniProt P49146); assay: melanophore assay, potency at the human Neuropeptide Y receptor type 2; type: cell-based; conditions: read-out: hNPY Y2 pEC50 (converted)
T1 construct: expressed in transfected cells; host or cells: melanophores; own knowledge: in the cited Jayawickreme protocol these are Xenopus laevis melanophores transfected with the receptor
T1 sequence (P49146 1-381): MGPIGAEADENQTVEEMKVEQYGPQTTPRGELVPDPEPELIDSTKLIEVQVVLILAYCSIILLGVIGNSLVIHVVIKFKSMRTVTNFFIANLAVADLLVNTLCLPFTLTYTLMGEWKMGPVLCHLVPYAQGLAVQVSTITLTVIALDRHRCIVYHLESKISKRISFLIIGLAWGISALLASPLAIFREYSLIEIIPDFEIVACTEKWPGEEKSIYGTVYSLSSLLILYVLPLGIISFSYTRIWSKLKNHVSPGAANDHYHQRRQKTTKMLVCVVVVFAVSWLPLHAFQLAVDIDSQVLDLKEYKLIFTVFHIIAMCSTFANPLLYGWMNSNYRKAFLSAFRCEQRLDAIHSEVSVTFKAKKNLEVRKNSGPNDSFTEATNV

[2] = cumulative food intake, lean mice (Model A), BioDaQ system; type: in vivo; conditions: lean C57BL/6 mice, 1 mg/kg subcutaneously, cumulative food intake after 6 h, relative to vehicle controls
Procedure: Cumulative food intake after 6 h was determined for the PYY analogs in either lean (Model A) or diet-induced obese (DIO) (Model B) C57BL/6 mice in a BioDaQ system for continuous monitoring of food intake (Research Diets Inc., New Brunswick, N.J.). […] Mice were placed singly into the BioDaQ cages and acclimatized for a minimum of 6 days and were allowed ad libitum access to food and water. Approximately 1 hour prior to lights-out, animals were dosed subcutaneously with either vehicle (20 mM Acetate buffer, pH 4.9 or 20% DMSO in water) or analogs dissolved in vehicle (1 mg/kg) (8 animals per group). Once all animals have been dosed, feeder gates were opened providing ad-libitum access to food. Continuous food intake was monitored and collected for 15 hours. […] P-values<0.05 were considered to indicate a significant difference between treatment groups.

Compound | EC50 [1] [nM] | % change in food intake vs vehicle, model A [2] [%]
PKPEAPGCDASPEEWNRYYASLRKYLNWVTRQHY-NH2 [Peptide 14] | 6.31 | 24
H-PKPEAPLSKQLEEEAVRYYASLRHYLNLVTRQRY-NH2 [Peptide 21] | 2 | -2
H-PKPEAPGCDASPEEWNRYYASLRKYLNWVTRQNY-NH2 [Peptide 1] | 12.6 | 5
CC(C)C[C@H](NC(=O)[C@H](CC(=O)O)NC(=O)[C@H](C)NC(=O)[C@H](Cc1ccc(O)cc1)NC(=O)[C@H](Cc1ccc(O)cc1)NC(=O)[C@H](CCCNC(=N)N)NC(=O)[C@H](CC(N)=O)NC(=O)[C@H](Cc1c[nH]c2ccccc12)NC(=O)[C@H](CCC(=O)O)NC(=O)[C@H](CCC(=O)O)NC(=O)[C@@H]1CCCN1C(=O)[C@H](CO)NC(=O)[C@H](C)NC(=O)[C@H](CC(=O)O)NC(=O)[C@H](CCCCN)NC(=O)CNC(=O)[C@@H]1CCCN1C(=O)[C@H](C)NC(=O)[C@H](CCC(=O)O)NC(=O)[C@@H]1CCCN1C(=O)[C@H](CCCCN)NC(=O)[C@@H]1CCCN1)C(=O)N[C@@H](CCCNC(=N)N)C(=O)N[C@@H](CCCCN)C(=O)N[C@@H](Cc1ccc(O)cc1)C(=O)N[C@@H](CC(C)C)C(=O)N[C@@H](CC(N)=O)C(=O)N[C@@H](Cc1c[nH]c2ccccc12)C(=O)N[C@@H](CC(C)C)C(=O)N[C@H](C(=O)N[C@@H](CCCNC(=N)N)C(=O)N[C@@H](CCC(N)=O)C(=O)N[C@@H](CCCNC(=N)N)C(=O)N[C@@H](Cc1ccc(O)cc1)C(N)=O)[C@@H](C)O [Example 4] | – | −83
PKPVAPGCDASPAELNRQYSDLRNYWNLVTRQRY-NH2 [Peptide 15] | 1.26 | -17
CC(C)C[C@H](NC(=O)[C@H](CC(=O)O)NC(=O)[C@H](C)NC(=O)[C@H](Cc1ccc(O)cc1)NC(=O)[C@H](Cc1ccc(O)cc1)NC(=O)[C@H](CCCNC(=N)N)NC(=O)[C@H](CC(N)=O)NC(=O)[C@H](Cc1c[nH]c2ccccc12)NC(=O)[C@H](CCC(=O)O)NC(=O)[C@H](CCC(=O)O)NC(=O)[C@@H]1CCCN1C(=O)[C@H](CO)NC(=O)[C@H](C)NC(=O)[C@H](CC(=O)O)NC(=O)[C@H](CCCCN)NC(=O)CNC(=O)[C@@H]1CCCN1C(=O)[C@H](C)NC(=O)[C@H](CCC(=O)O)NC(=O)[C@@H]1CCCN1C(=O)[C@H](CCCCN)NC(=O)[C@@H]1CCCN1)C(=O)N[C@@H](CCCNC(=N)N)C(=O)N[C@@H](CCCCN)C(=O)N[C@@H](Cc1ccc(O)cc1)C(=O)N[C@@H](CC(C)C)C(=O)N[C@@H](CC(N)=O)C(=O)N[C@@H](Cc1c[nH]c2ccccc12)C(=O)N[C@H](C(=O)N[C@H](C(=O)N[C@@H](CCCNC(=N)N)C(=O)N[C@@H](CCC(N)=O)C(=O)N[C@@H](CCCNC(=N)N)C(=O)N[C@@H](Cc1ccc(O)cc1)C(N)=O)[C@@H](C)O)C(C)C [Example 8] | 0.02 | −74
CC(C)C[C@H](NC(=O)[C@H](CO)NC(=O)[C@H](C)NC(=O)[C@H](Cc1ccc(O)cc1)NC(=O)[C@H](Cc1ccc(O)cc1)NC(=O)[C@H](CCCNC(=N)N)NC(=O)[C@H](CC(N)=O)NC(=O)[C@H](CC(C)C)NC(=O)[C@H](CCC(=O)O)NC(=O)[C@H](CCC(=O)O)NC(=O)[C@@H]1CCCN1C(=O)[C@H](CO)NC(=O)[C@H](C)NC(=O)[C@H](CC(=O)O)NC(=O)[C@H](CCCCN)NC(=O)CNC(=O)[C@@H]1CCCN1C(=O)[C@H](C)NC(=O)[C@H](CCC(=O)O)NC(=O)[C@@H]1CCCN1C(=O)[C@H](CCCCN)NC(=O)[C@@H]1CCCN1)C(=O)N[C@@H](CCCNC(=N)N)C(=O)N[C@@H](CCCCN)C(=O)N[C@@H](Cc1ccc(O)cc1)C(=O)N[C@@H](CC(C)C)C(=O)N[C@@H](CC(N)=O)C(=O)N[C@@H](Cc1c[nH]c2ccccc12)C(=O)N[C@H](C(=O)N[C@H](C(=O)N[C@@H](CCCNC(=N)N)C(=O)N[C@@H](CCC(N)=O)C(=O)N[C@@H](CCCNC(=N)N)C(=O)N[C@@H](Cc1ccc(O)cc1)C(N)=O)[C@@H](C)O)C(C)C [Example 31] | 0.158 | −59
CC(C)C[C@H](NC(=O)[C@H](CO)NC(=O)[C@H](C)NC(=O)[C@H](Cc1ccc(O)cc1)NC(=O)[C@H](Cc1ccc(O)cc1)NC(=O)[C@H](CCCNC(=N)N)NC(=O)[C@H](CC(N)=O)NC(=O)[C@H](Cc1c[nH]c2ccccc12)NC(=O)[C@H](CCC(=O)O)NC(=O)[C@H](CCC(=O)O)NC(=O)[C@@H]1CCCN1C(=O)[C@H](CO)NC(=O)[C@H](C)NC(=O)[C@H](CC(=O)O)NC(=O)[C@H](CCCCN)NC(=O)CNC(=O)[C@@H]1CCCN1C(=O)[C@H](C)NC(=O)[C@H](CCC(=O)O)NC(=O)[C@@H]1CCCN1C(=O)[C@H](CCCCN)NC(=O)[C@@H]1CCCN1)C(=O)N[C@@H](CCCNC(=N)N)C(=O)N[C@@H](CCCCN)C(=O)N[C@@H](Cc1ccc(O)cc1)C(=O)N[C@@H](CC(C)C)C(=O)N[C@@H](CC(N)=O)C(=O)N[C@@H](Cc1c[nH]c2ccccc12)C(=O)N[C@@H](CC(C)C)C(=O)N[C@H](C(=O)N[C@@H](CCCNC(=N)N)C(=O)N[C@@H](CCC(N)=O)C(=O)N[C@@H](CCCNC(=N)N)C(=O)N[C@@H](Cc1ccc(O)cc1)C(N)=O)[C@@H](C)O [Example 6] | 0.0794 | −88
CC(C)C[C@H](NC(=O)[C@H](CO)NC(=O)[C@H](C)NC(=O)[C@H](Cc1ccc(O)cc1)NC(=O)[C@H](Cc1ccc(O)cc1)NC(=O)[C@H](CCCNC(=N)N)NC(=O)[C@H](CC(N)=O)NC(=O)[C@H](CC(C)C)NC(=O)[C@H](CCC(=O)O)NC(=O)[C@H](CCC(=O)O)NC(=O)[C@@H]1CCCN1C(=O)[C@H](CO)NC(=O)[C@H](C)NC(=O)[C@H](CC(=O)O)NC(=O)[C@H](CCCCN)NC(=O)CNC(=O)[C@@H]1CCCN1C(=O)[C@H](C)NC(=O)[C@H](CCC(=O)O)NC(=O)[C@@H]1CCCN1C(=O)[C@H](CCCCN)NC(=O)[C@@H]1CCCN1)C(=O)N[C@@H](CCCNC(=N)N)C(=O)N[C@@H](CCCCN)C(=O)N[C@@H](Cc1ccc(O)cc1)C(=O)N[C@@H](CC(C)C)C(=O)N[C@@H](CC(N)=O)C(=O)N[C@@H](Cc1c[nH]c2ccccc12)C(=O)N[C@@H](CC(C)C)C(=O)N[C@H](C(=O)N[C@@H](CCCNC(=N)N)C(=O)N[C@@H](CCC(N)=O)C(=O)N[C@@H](CCCNC(=N)N)C(=O)N[C@@H](Cc1ccc(O)cc1)C(N)=O)[C@@H](C)O [Example 2] | 0.158 | −50
PEPEHPGCDASPEDQNKYHASLRKYLNWVTRQRY-NH2 [Peptide 10] | – | -21
H-IKPEAPLSKQLEEEAVRYYASLRHYLNLVTRQRY-NH2 [Peptide 2] | 2.51 | -12
H-PQPESPEGNASPEDWACYHAAVRHYVNLITRQRY-NH2 [Peptide 18] | – | -17
